Source: patent US20150150843A1, “CARDIOPROTECTIVE COMPOUNDS, THEIR USE WITH CHEMOTHERAPY, AND METHODS FOR IDENTIFYING THEM” (priority 2012, published 2015)
Marks after values point to notes of the source that are not given here.

Legend:
[1] = test system: zebrafish heart; assay: Doxorubicin-induced heart failure model in zebrafish (heart contraction, tail circulation, morphology, fractional shortening); format: in vivo
Description: For screening, about 400 nl of small molecule stock solution was transferred from 96-well format library plates to fish plate with transfer pins. At dpf 3, treated fish were screened under inverted fluorescent microscope (100×) for heart contraction and tail circulation.
Zebrafish have been used successfully for high-throughput screening (HTS) to identify chemical compounds that suppress genetic defects and other disease states (Peterson et al., Methods Cell. Biol. 105, 525-541, 2011). Compared to cell-based in vitro systems, in vivo screening offers several advantages, including the ability to discover compounds with therapeutic activity even without knowing their molecular targets. In addition, compounds discovered by in vivo screening are selected for their ability to be effective in the complex context of the disease of interest. […] Heart contraction was dramatically compromised, resulting in the absence of blood cell circulation within tail blood vessels. Using a high-speed camera and a custom analysis algorithm, we were able to calculate the fractional shortening of the zebrafish hearts. […] Therefore, the zebrafish model appears to recapitulate several key aspects of the doxorubicin-induced heart failure seen in humans, including increased apoptosis and reduced contractility. Because the doxorubicin-induced changes in cardiac function and blood circulation are easily detected visually, they formed the basis of an assay to identify small molecules suppressing doxorubicin-induced cardiotoxicity.
Hearts were surgically removed and briefly fixed with 4% paraformaldehyde (PFA) for 20 minutes at room temperature. The fixed heart samples were embedded in mounting medium and flattened with slide and coverslip. Confocal images were captured from the flattened hearts, and red nuclei were counted. All experiments were done at least three times, and the statistics were obtained by Student T-test.
In order to confirm and quantify the activity of compounds with cardioprotective properties identified in the preceding assays, a high-resolution assay of cardiac function, described by Shin et al. (Physiol Genomics. 2010 July; 42(2): 300-309), can be used to measure heart fractional shortening.

[2] = test system: zebrafish cardiomyocytes; assay: TUNEL staining of apoptotic cardiomyocytes in doxorubicin-treated zebrafish; format: in vivo
Description: Because cardiomyocyte apoptosis plays a critical role in mediating doxorubicin-induced cardiomyopathy, we sought to determine if VIS Aand DPU attenuate heart failure by inhibiting cardiomyocyte apoptosis.
Hearts were surgically removed and fixed with 4% paraformaldehyde (PFA) for 20 minutes at room temperature. After staining with an in situ TUNEL kit (Roche), heart samples were embedded in mounting medium and flattened with slide and coverslip, and then subjected to confocal microscopy. The data were quantified as percentage of TUNEL positive cardiomyocytes. All experiments were done at least three times, and the statistics were obtained by Student T-test.

[3] = test system: mouse cardiac sections; assay: TUNEL apoptosis assay in hearts of doxorubicin-treated mice; format: in vivo; settings: one day
Description: To determine if the ability of VIS and DPU to protect cardiomyocytes from apoptosis was conserved in mammals, we treated mice with doxorubicin with or without co-treatment with VIS or DPU. One day later, hearts were collected for apoptosis assays using TUNEL (Supplement FIG. 1b). […] Therefore, VIS and DPU appear to prevent doxorubicin-induced cardiac apoptosis in both zebrafish and mice.
One day after injection, hearts were collected and fixed with 4% PFA at 4° C. overnight and then were subjected to paraffin embedding and sectioning. The heart sections were stained using the TMR TUNEL kit (Roche) following the manufacturer's protocol. The stained sections were scanned with MetaMorph-assisted slide scanning microscopy, and apoptosis indices were quantified as TUNEL positive cell/mm^2. All experiments were done at least three times, and the statistics were obtained by Student T-test.

[4] = test system: neonatal rat cardiomyoyte; assay: Doxorubicin-induced apoptosis in neonatal rat cardiomyocyte; format: cell-based
[5] = test system: cardiomyoyte HL1; assay: AnnexinV apoptosis assay in cardiomyocyte HL1; format: cell-based, mouse
Description: (§1) Cardiomyocyte line HL-1 was derived from mouse atrium tumor. Culturing conditions were previously published (Claycomb et al., Proc. Natl. Acad. Sci. USA, 95, 2979, 1998). HL 1 was cultured with Claycomb medium (Sigma) supplemented with fetal bovine serum (FBS), penicillin/streptomycin, L-glutamine and norepinephrine. DU145 and LNCaP are human prostate tumor lines, while MCF7 is a human breast cancer line. DU145 and MCF7 were cultured with high glucose DMEM (Life Sciences) supplemented with penicillin/streptomycin and L-glutamine, and LNCaP was grown in RPMI-1640 (Life Sciences) plus penicillin/streptomycin and L-glutamine. […] Apoptosis indices were quantified as percentage of AnnexinV positive cells. All experiments were done at least three times, and the statistics were obtained by Student T-test.

[6] = test system: tumor line DU145; assay: Doxorubicin-induced apoptosis in tumor line DU145; format: cell-based, human
Description: as §1

[7] = test system: tumor line LNCaP; assay: Doxorubicin-induced apoptosis in tumor line LNCaP; format: cell-based, human
Description: as §1

[8] = test system: tumor line MCF7; assay: Doxorubicin-induced apoptosis in tumor line MCF7; format: cell-based, human
Description: as §1

[9] = test system: cardiomyocyte HL1; assay: CellTiter Glo viability of doxorubicin-treated HL1; format: cell-based, mouse; settings: VIS and DPU at 20 μM
Description: (§2) Cardiomyocyte line HL-1 was derived from mouse atrium tumor. Culturing conditions were previously published (Claycomb et al., Proc. Natl. Acad. Sci. USA, 95, 2979, 1998). HL 1 was cultured with Claycomb medium (Sigma) supplemented with fetal bovine serum (FBS), penicillin/streptomycin, L-glutamine and norepinephrine. DU145 and LNCaP are human prostate tumor lines, while MCF7 is a human breast cancer line. DU145 and MCF7 were cultured with high glucose DMEM (Life Sciences) supplemented with penicillin/streptomycin and L-glutamine, and LNCaP was grown in RPMI-1640 (Life Sciences) plus penicillin/streptomycin and L-glutamine. […] All experiments were done at least three times, and the statistics were obtained by Student T-test.

[10] = test system: prostate tumor cell DU145; assay: CellTiter Glo viability of doxorubicin-treated DU145; format: cell-based, human; settings: VIS and DPU at 20 μM
Description: as §2

[11] = test system: caspases 3, 8 and 9 in cardiomyocyte; assay: Caspase 3, 8 and 9 activity (fluorogenic substrates) in cardiomyocyte; format: cell-based
Description: We also examined effects of the compounds on apoptosis (via TUNEL staining) in cardiomyocytes and tumor cells.
Specific activity of caspases 3, 8 and 9 were assessed semi-quantitatively using the corresponding fluorogenic substrates following manufacturer's protocols (R&D Systems). All experiments were done at least three times, and the statistics were obtained by Student T-test.

[12] = test system: JNK phosphorylation in HL 1 cells; assay: JNK phosphorylation western blot in HL 1 cells; format: cell-based, mouse
Source text: (§3) In an effort to identify pathways involved in VIS and DPU mediated cardioprotection, we screened a panel of kinases by western blotting. […] To confirm the cardiomyocyte-specific inhibition of JNK signaling, we used a luciferase-based AP1 reporter assay to detect JNK activation in HL 1 and DU145 cells.
Blots were quantified by densitometry with Image J. All experiments were done at least three times, and the statistics were obtained by Student T-test.

[13] = test system: JNK phosphorylation in DU145 cells; assay: JNK phosphorylation western blot in DU145 cells; format: cell-based, human
Source text: as §3

[14] = test system: JNK responsive reporter AP-1 in HL 1 cells; assay: AP-1 luciferase reporter assay in HL 1 cells; format: cell-based, mouse; settings: doxorubicin-treated
Source text: as §3

[15] = test system: JNK responsive reporter AP-1 in DU145 cells; assay: AP-1 luciferase reporter assay in DU145 cells; format: cell-based, human; settings: doxorubicin-treated
Source text: as §3

[16] = test system: mouse heart function; assay: Acute doxorubicin-induced HF model in mice, echocardiography; format: in vivo; settings: five days
Description: Five days after the initial injection, we assessed heart function by M mode echocardiogram.
Strain C57BL/6 male mice between 8-10 weeks of age were purchased from Charles River Laboratories. […] In the control group, plain vehicle and saline were injected instead. Five days later, injected mice were subjected to echocardiography. Five days after treatment, transthoracic echocardiographic images were obtained and interpreted by an echocardiographer blinded to the experimental design using a 13.0-MHz linear probe (Vivid 7; GE Medical System, Milwaukee, Wis.) as described (Zou et al., Crit. Care Med. 38, 1335-1342, 2010; Neilan et al., Eur. Heart J. 27, 1868-1875, 2006). Mice were lightly anesthetized with ketamine (20 mg/kg). M-mode images were obtained from a parasternal short-axis view at the midventricular level with a clear view of papillary muscle. Tissue Doppler imaging was collected at a frame rate of 483 frames per second and a depth of 1 em. LV end-diastolic internal diameter (LVIDd) and LV end systolic internal diameter (LVIDS) were measured. Fractional shortening (FS) was defined as [(LVIDd−LVIDS)/LVIDd]. Strain rate of the posterior wall was analyzed offline in an EchoPAC workstation (GE Healthcare, Wauwatosa, Wis.). A region of interest (axial distance, 0.2 mm; width, 0.6 mm) was manually positioned in the middle of the posterior wall. A strain length of 0.5 mm was used. Peak systolic strain rate was measured. The temporal smoothing filters were turned off for all measurements. The values of three consecutive cardiac cycles were averaged.

[17] = test system: mouse heart function; assay: Chronic low-dose doxorubicin treatment in mice, echocardiography; format: in vivo; settings: low doses of doxorubicin 5 times over 5 weeks
Source text: Labels: DMSO: DMSO-treated control samples; Dox: doxorubicin-treated samples; Dox+VIS: doxorubicin and VIS co-treated samples; Dox+DPU: doxorubicin and DPU co-treated samples.

[18] = patients; cited from earlier work
[19] = zebrafish treated with doxorubicin
[20] = mice, 15 mg/kg doxorubicin IP, with or without 25 mg/kg VIS IP, mean ± SEM

In the case of `COc1c2ccoc2cc2oc(C)cc(=O)c12` [VIS, visnagin], the “cardiac contractility as measured by fractional shortening” value [1, 19] is reported as “completely rescued cardiac contractility”, the “overt morphological effects of doxorubicin on the heart (ventricular compaction, pericardial edema)” value [1, 19] is reported as “prevented the overt morphological effects of doxorubicin on the heart” and the “number of apoptotic cardiomyocytes induced by doxorubicin (TUNEL)” value ([2]; 100 μM doxorubicin plus 20 μM rescue compound, two days) is reported as “greatly reduced the number of apoptotic cardiomyocytes”. For the same compound, the “doxorubicin-induced apoptosis in mouse heart (TUNEL)” value ([3]; 15 mg/kg doxorubicin plus 25 mg/kg visnagin or 10 mg/kg diphenylurea IP) was “significantly decreased doxorubicin-induced apoptosis”, the “doxorubicin-induced apoptosis, AnnexinV staining” value [4] was “inhibit doxorubicin-induced apoptosis” and the “doxorubicin-induced apoptosis, TUNEL staining” value [4] was “inhibit doxorubicin-induced apoptosis”. For the same compound, the “doxorubicin-induced apoptosis, AnnexinV staining” value [5] was “reduce doxorubicin-induced apoptosis”, the doxorubicin-induced apoptosis [6] was “do not reduce doxorubicin-induced apoptosis” and the doxorubicin-induced apoptosis [7] was “do not reduce doxorubicin-induced apoptosis”. The doxorubicin-induced apoptosis [8] was “do not reduce doxorubicin-induced apoptosis”, the “viability of doxorubicin-treated cardiomyocyte HL1” value [9] was “increase viability” and the “viability of doxorubicin-treated prostate tumor cell DU145” value [10] was “do not increase viability”. For the same compound, the “activity of caspases 3, 8 and 9 activated by doxorubicin” value [11] was “inhibited”, the “doxorubicin-induced JNK phosphorylation” value [12] was “inhibit doxorubicin-induced JNK phosphorylation” and the “doxorubicin-induced JNK phosphorylation” value [13] was “do not inhibit doxorubicin-induced JNK phosphorylation”. The AP-1 luciferase activity [14] was “repressed”, the AP-1 luciferase activity [15] was “not repressed” and the “fractional shortening and strain rate compared to mice treated with doxorubicin alone” value ([16]; 25 mg/kg VIS immediately prior to 15 mg/kg doxorubicin IP) was “significant improvement”. For the same compound, the “doxorubicin-induced reduction of fractional shortening” value [17] was “partially reversed the reduction” and the “doxorubicin-induced reduction of strain rate” value [17] was “partially reversed the reduction”.

In the case of `COc1cccc2c1C(=O)c1c(O)c3c(c(O)c1C2=O)C[C@@](O)(C(=O)CO)C[C@@H]3O[C@H]1C[C@H](N)[C@H](O)[C@H](C)O1` [doxorubicin], the “atrium and ventricle cardiomyocyte numbers compared to controls” value ([1]; 100 μM doxorubicin for two days, cmlc2-dsRed line) is reported as “significantly reduced”, the “heart rate and contractility” value ([1]; 100 μM doxorubicin from 1 dpf, assessed at 3 dpf) is reported as “dramatically reduced” and the pericardial edema ([1]; 100 μM doxorubicin from 1 dpf, two days exposure) is reported as “extensive pericardial edema”. The “increase in apoptotic cardiomyocytes (TUNEL)” value ([2]; doxorubicin 100 μM, 4 dpf zebrafish) was “four-fold increase”, the “increase in apoptosis in mouse cardiac sections (TUNEL)” value ([3]; 15 mg/kg doxorubicin IP) was 3- to 4 fold and the FS [16, 20] was 44 ± 2 %. The HR [16, 20] was 609 ± 23 beats/min, the LVIDs [16, 20] was 1.78 ± 0.10 mm and the “Strain Rate” value [16, 20] was 16 ± 1*** 1/sec. The “cumulative dosages that exponentially increase the risk of heart failure” value [18] was “above 450 mg/m^2”.
